Reference: ChEMBL document CHEMBL1201862, “PubChem BioAssay data set” (2004)
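Values below derive from 48-hour exposures of cells grown in 96-well plates, with endpoints linearly interpolated between the two concentrations bracketing the appropriate inhibition level. Abbreviation: GI50, concentration required for 50% inhibition of growth.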 Activity calls are given as the source filed them. Cut-off read from the data, not from the text of the source: active = GI50 up to about 1.1 µM and inactive = higher.

Key:
Assay in all cases: inhibition of tumour cell growth, NCI panel, 48 h
A549 = tested on: A549
EKVX = tested on: EKVX
HCC 2998 = tested on: HCC 2998
HCT-116 = tested on: HCT-116
HL-60 = tested on: HL-60
HT-29 = tested on: HT-29
IGROV-1 = tested on: IGROV-1
K562 = tested on: K562
M14 = tested on: M14
M19-MEL = tested on: M19-MEL
MOLT-4 = tested on: MOLT-4
NCI-H522 = tested on: NCI-H522
OVCAR-8 = tested on: OVCAR-8
SF-295 = tested on: SF-295
SF-539 = tested on: SF-539
SK-MEL-2 = tested on: SK-MEL-2
SN12C = tested on: SN12C
UACC-257 = tested on: UACC-257
HOP-92 = tested on: HOP-92
MDA-MB-231 = tested on: MDA-MB-231

Row | Compound | GI50 (A549) | GI50 (EKVX) | GI50 (HCC 2998) | GI50 (HCT-116) | GI50 (HL-60) | GI50 (HT-29) | GI50 (IGROV-1) | GI50 (K562) | GI50 (M14) | GI50 (M19-MEL) | GI50 (MOLT-4) | GI50 (NCI-H522) | GI50 (OVCAR-8) | GI50 (SF-295) | GI50 (SF-539) | GI50 (SK-MEL-2) | GI50 (SN12C) | GI50 (UACC-257) | GI50 (HOP-92) | GI50 (MDA-MB-231)
1 | C/C(CN1C(=O)c2ccccc2C1=O)=N\NS(C)(=O)=O | > 100 µM (inactive) | > 100 µM (inactive) | > 100 µM (inactive) | > 100 µM (inactive) | > 100 µM (inactive) | > 100 µM (inactive) | > 100 µM (inactive) | > 100 µM (inactive) | > 100 µM (inactive) | > 100 µM (inactive) | > 100 µM (inactive) | > 100 µM (inactive) | > 100 µM (inactive) | > 100 µM (inactive) | > 100 µM (inactive) | > 100 µM (inactive) | > 100 µM (inactive) | > 100 µM (inactive) |  | 
2 | O=C(O)CCSC(=O)Nc1cccc2ccccc12 | > 100 µM (inactive) | > 100 µM (inactive) | > 100 µM (inactive) | > 100 µM (inactive) |  | > 100 µM (inactive) | > 100 µM (inactive) | > 100 µM (inactive) | > 100 µM (inactive) | > 100 µM (inactive) | > 100 µM (inactive) |  | > 100 µM (inactive) | > 100 µM (inactive) | > 100 µM (inactive) |  | > 100 µM (inactive) | > 100 µM (inactive) | > 100 µM (inactive) | 
3 | Brc1ccc2c(c1)C1(c3cc(Br)ccc3-2)c2cc(Br)ccc2-c2ccc(Br)cc21 | > 100 µM (inactive) | > 100 µM (inactive) | > 100 µM (inactive) | > 100 µM (inactive) | > 100 µM (inactive) | > 100 µM (inactive) | > 100 µM (inactive) | > 100 µM (inactive) | > 100 µM (inactive) | > 100 µM (inactive) | > 100 µM (inactive) | > 100 µM (inactive) | > 100 µM (inactive) | > 100 µM (inactive) | > 100 µM (inactive) | > 100 µM (inactive) | > 100 µM (inactive) | > 100 µM (inactive) |  | 
4 | C=CCCCCOC1C=CC(OC(C)=O)C(COC(C)=O)O1 (centres undefined) | > 100 µM (inactive) | > 100 µM (inactive) | > 100 µM (inactive) | > 100 µM (inactive) | > 100 µM (inactive) | > 100 µM (inactive) | > 100 µM (inactive) | > 10 µM (inactive) | > 100 µM (inactive) |  | > 100 µM (inactive) | > 100 µM (inactive) | > 100 µM (inactive) | > 100 µM (inactive) | > 100 µM (inactive) | > 100 µM (inactive) | > 100 µM (inactive) | > 100 µM (inactive) | > 100 µM (inactive) | > 100 µM (inactive)
5 | CN(C)c1c(C2CC(O)C(CO)O2)c(=O)c1=O (centres undefined) | > 100 µM (inactive) | > 100 µM (inactive) | > 100 µM (inactive) | > 100 µM (inactive) | > 100 µM (inactive) | > 100 µM (inactive) | > 100 µM (inactive) | > 100 µM (inactive) | > 100 µM (inactive) |  | > 100 µM (inactive) | > 100 µM (inactive) | > 100 µM (inactive) | > 100 µM (inactive) | > 100 µM (inactive) | > 100 µM (inactive) | > 100 µM (inactive) | > 100 µM (inactive) | > 100 µM (inactive) | > 100 µM (inactive)
6 | C[N+](C)=c1nc(N2CCc3ccccc3C2)ss1.[O-][Cl+3]([O-])([O-])[O-] | > 100 µM (inactive) |  | > 100 µM (inactive) | 81.3 µM (inactive) | 34.2 µM (inactive) |  | > 100 µM (inactive) | > 100 µM (inactive) | > 100 µM (inactive) | > 100 µM (inactive) | 30.7 µM (inactive) | > 100 µM (inactive) | > 100 µM (inactive) |  | > 100 µM (inactive) | > 100 µM (inactive) | > 100 µM (inactive) | > 100 µM (inactive) |  | 
7 | O=C(NCCCCl)c1c(O)c2ccccc2[nH]c1=O | > 100 µM (inactive) | 50.6 µM (inactive) | > 76.2 µM (inactive) | > 100 µM (inactive) | > 100 µM (inactive) | > 100 µM (inactive) | > 100 µM (inactive) | > 100 µM (inactive) | > 100 µM (inactive) |  | > 100 µM (inactive) | > 65.5 µM (inactive) | > 100 µM (inactive) | > 48.9 µM (inactive) | > 54 µM (inactive) | > 94 µM (inactive) | > 100 µM (inactive) | > 100 µM (inactive) | > 43.3 µM (inactive) | > 100 µM (inactive)
8 | O=C(Cc1ccccc1)NN1C(=O)C(Cl)C1c1ccc(O)cc1 (centres undefined) | > 100 µM (inactive) | > 100 µM (inactive) | > 100 µM (inactive) | > 100 µM (inactive) | 62.7 µM (inactive) | > 100 µM (inactive) | > 100 µM (inactive) | > 100 µM (inactive) | > 100 µM (inactive) | > 100 µM (inactive) | > 100 µM (inactive) | > 100 µM (inactive) | > 100 µM (inactive) | > 100 µM (inactive) |  | > 100 µM (inactive) | > 100 µM (inactive) | > 100 µM (inactive) |  | 
9 | CC1=NC(=Cc2cc(Br)cc(Br)c2)C(=O)N1n1c(-c2ccccc2)nc2ccccc2c1=O | > 100 µM (inactive) | > 100 µM (inactive) | > 100 µM (inactive) | > 100 µM (inactive) | > 100 µM (inactive) | > 100 µM (inactive) | > 100 µM (inactive) | > 100 µM (inactive) | > 100 µM (inactive) |  | > 100 µM (inactive) | > 100 µM (inactive) | > 100 µM (inactive) | > 100 µM (inactive) | > 100 µM (inactive) | > 100 µM (inactive) | > 100 µM (inactive) | > 100 µM (inactive) | > 100 µM (inactive) | > 100 µM (inactive)
10 | CCN(CC)Cc1nc(C2CCC([N+](=O)[O-])O2)no1 (centres undefined) | 39.8 µM (inactive) | > 100 µM (inactive) | 20.6 µM (inactive) | 24.3 µM (inactive) | 16.6 µM (inactive) | 17 µM (inactive) | 41.5 µM (inactive) | 36.2 µM (inactive) | 14.5 µM (inactive) |  | 53.5 µM (inactive) | 15.9 µM (inactive) | 30.1 µM (inactive) | 30.1 µM (inactive) | 28.2 µM (inactive) | 21.7 µM (inactive) | 47.1 µM (inactive) | 19.9 µM (inactive) | > 100 µM (inactive) | 26.7 µM (inactive)
11 | O=C(NN=C1CCCCC1)Nc1ccccc1Cl | 81.7 µM (inactive) | 52.8 µM (inactive) | 59.3 µM (inactive) | 48.8 µM (inactive) | 29.6 µM (inactive) | 36.3 µM (inactive) | 26.5 µM (inactive) | 37.7 µM (inactive) | 29.8 µM (inactive) |  | 47.8 µM (inactive) | 23.1 µM (inactive) | 62.5 µM (inactive) | 33.3 µM (inactive) | 32.5 µM (inactive) | 28.6 µM (inactive) | 57.5 µM (inactive) | 78.7 µM (inactive) | 23.6 µM (inactive) | > 100 µM (inactive)
12 | O=C(O)c1cccc(S(=O)(=O)NN2C(=O)CSC2c2ccccc2)c1 (centres undefined) | > 100 µM (inactive) | > 100 µM (inactive) | > 100 µM (inactive) | > 100 µM (inactive) | 4.4 µM (inactive) | > 100 µM (inactive) | > 100 µM (inactive) | > 100 µM (inactive) | > 100 µM (inactive) |  | > 100 µM (inactive) | 27.6 µM (inactive) | > 100 µM (inactive) | > 100 µM (inactive) | > 100 µM (inactive) | > 100 µM (inactive) | > 100 µM (inactive) | > 100 µM (inactive) | > 100 µM (inactive) | > 100 µM (inactive)
13 | COc1ccc2[nH]c3c(C)c4ccnc(NCCCN(C)CCCNC(=O)NCCCN(C)CCCNc5nccc6c(C)c7[nH]c8ccc(OC)cc8c7c(C)c56)c4c(C)c3c2c1 | 0.249 µM (active) | 0.925 µM (active) | 0.265 µM (active) | 0.208 µM (active) | 0.147 µM (active) | 0.245 µM (active) | 0.476 µM (active) | 0.23 µM (active) | 0.753 µM (active) |  | 0.236 µM (active) | 0.226 µM (active) | 0.638 µM (active) | 0.566 µM (active) | 0.314 µM (active) | 1.35 µM (inactive) | 0.269 µM (active) | 1.6 µM (inactive) | 0.406 µM (active) | 0.403 µM (active)
14 | CN(NC(=O)CCCl)C1=NCCCCN1 | > 100 µM (inactive) | > 100 µM (inactive) | > 100 µM (inactive) | > 100 µM (inactive) | > 100 µM (inactive) | > 100 µM (inactive) | > 100 µM (inactive) | > 100 µM (inactive) | > 100 µM (inactive) |  | > 100 µM (inactive) | > 100 µM (inactive) | > 100 µM (inactive) | > 100 µM (inactive) | > 100 µM (inactive) | > 100 µM (inactive) | > 100 µM (inactive) | > 100 µM (inactive) | > 100 µM (inactive) | > 100 µM (inactive)
15 | O=C1c2c(Cl)c(Cl)c(Cl)c(Cl)c2C(=O)N1CCN(c1c(Cl)ssc1=O)c1c(Cl)ssc1=O | > 100 µM (inactive) | 32.1 µM (inactive) | 21.2 µM (inactive) | 16.1 µM (inactive) | 30.2 µM (inactive) | 19.5 µM (inactive) | 46.2 µM (inactive) | 20.7 µM (inactive) | 21.5 µM (inactive) |  | 10.3 µM (inactive) | 23.2 µM (inactive) | 21.7 µM (inactive) | > 100 µM (inactive) | 19.1 µM (inactive) | 24.2 µM (inactive) | 23.4 µM (inactive) | 16.9 µM (inactive) | 20.1 µM (inactive) | 36.1 µM (inactive)
